# US12466834B2, “Imidazodiazepinediones and methods of use thereof” (GFB (ABC), LLC, priority 2018, dated 2025)
# Tests used:
# human TRPC5 [1] = biological target: T1, human TRPC5 (Homo sapiens, UniProt Q9UL62); assay: FLIPR calcium assay, inhibition of riluzole-activated TRPC5 calcium response; assay type: cell-based; settings: ICLN-1633 cells; riluzole 30 μM stimulation; Fluo-4 calcium response; read-out: Inhibitor Potency Range (FLIPR)
# T1 construct: expressed in transfected cells
# T1 sequence (Q9UL62 1-973): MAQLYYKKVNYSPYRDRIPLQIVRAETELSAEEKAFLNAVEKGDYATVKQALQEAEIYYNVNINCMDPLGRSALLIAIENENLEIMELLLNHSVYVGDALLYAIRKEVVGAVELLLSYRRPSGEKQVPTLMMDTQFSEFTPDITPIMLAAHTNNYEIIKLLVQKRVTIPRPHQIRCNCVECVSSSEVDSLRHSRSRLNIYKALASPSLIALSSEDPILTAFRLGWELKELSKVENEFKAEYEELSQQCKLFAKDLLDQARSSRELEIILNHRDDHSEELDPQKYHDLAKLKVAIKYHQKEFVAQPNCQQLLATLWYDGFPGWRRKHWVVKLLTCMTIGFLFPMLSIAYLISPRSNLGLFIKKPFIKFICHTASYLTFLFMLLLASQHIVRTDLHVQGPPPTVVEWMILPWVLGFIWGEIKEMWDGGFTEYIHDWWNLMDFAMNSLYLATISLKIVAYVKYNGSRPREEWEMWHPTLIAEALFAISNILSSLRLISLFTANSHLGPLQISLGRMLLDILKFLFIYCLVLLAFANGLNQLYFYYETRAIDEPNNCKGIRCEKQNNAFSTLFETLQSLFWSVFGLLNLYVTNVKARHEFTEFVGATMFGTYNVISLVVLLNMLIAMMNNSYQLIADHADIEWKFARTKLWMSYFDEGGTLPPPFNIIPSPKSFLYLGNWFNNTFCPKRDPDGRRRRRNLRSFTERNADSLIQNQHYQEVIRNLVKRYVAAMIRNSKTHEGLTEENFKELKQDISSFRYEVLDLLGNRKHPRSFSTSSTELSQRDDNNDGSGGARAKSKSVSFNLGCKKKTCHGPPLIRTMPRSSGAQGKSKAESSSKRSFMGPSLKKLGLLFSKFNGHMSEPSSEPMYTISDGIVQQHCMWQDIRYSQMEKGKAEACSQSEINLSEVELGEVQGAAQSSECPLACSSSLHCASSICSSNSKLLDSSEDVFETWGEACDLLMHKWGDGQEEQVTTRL
# Description: (§1) ICLN-1633 cells (HEK-TREx hTRPC5) expressing TRPC5 were generated as follows. Commercially available HekTrex-293 cells were seeded at 0.7×10^6 cells/well in a 1×6-well plate 24 hrs prior to transfection using 2 mL cell growth media containing no antibiotics (1× DMEM/high glucose (Hyclone #SH30022.02); 10% fetal bovine serum (Sigma) 2 mM sodium pyruvate, 10 mM HEPES). The human TRPC5 coding sequence (NM_012471 with a silent T478C mutation) was cloned into pcDNA5/TO (Invitrogen; Cat No. V103320) using hygromycin as the resistance gene and the plasmid (SEQ ID NO:1) propagated using T-Rex-293 cells (Invitrogen; Cat No. R71007) following manufacturer's directions. On day 2, 2 μg of plasmid DNA plus 6 μl of Xtreme-GENE HP reagent in Optimem (200 μl total volume) was prepared and incubated for 15 min at room temperature. This plasmid solution was then gently overlayed dropwise onto each well and the plate was gently swirled to mix complex with the media for approximately 30 seconds. Transfected cells were incubated at 37° C. in a 10% CO2 incubator for 24 hrs. The transfected cells were harvested and transferred into 2×150 mm dishes containing cell growth media with no antibiotics at 37° C.
# (§2) Compounds were made up to, or supplied as a 10 mM stock solution generally using DMSO as the vehicle. 10-point dose response curves were generated using the Echo-550 acoustic dispenser. Compound source plates were made by serially diluting compound stocks to create 10 mM, 1 mM, and 0.1 mM solutions in DMSO into Echo certified LDV plates. The Echo then serially spotted 100% DMSO stock solutions into source dose response plates to generate a 4-fold dilution scheme. 100% DMSO was added to the spotted dose response plates to bring the final volume to 5 μl. 300 nl of the dose response stock plate was then spotted into pre-incubation and stimulation assay plates. 50 μl of pre-incubation buffer and 100 μl of stimulation buffer was then added to the plates resulting in a final assay test concentration range of 30 μM to 0.0001 μM with a final DMSO concentration of 0.3%.
# (§3) Human ICLN-1633 cells expressing were plated onto 384 well, black poly-D-lysine-coated microplates and maintained in TRPC5 growth media the day prior to use for experiments. TRPC5 expression was induced by the application of 1 μg/mL tetracycline at the time of plating. Media was removed from the plates and 10 μl of 4 μM of Fluo-4 AM (mixed with equal volume of Pluronic F-127) in Earls's Balanced Salt Solution (EBSS) was added to the cells. Cells were incubated at room temperature, protected from light, for 60-90 minutes. After the incubation period, the dye was removed and replaced with 10 μl of EBSS. Cell, pre-incubation and stimulation plates were loaded onto the FLIPR-II and the assay was initiated. The FLIPR measured a 10 second baseline and then added 10 μl of 2× compounds (or controls). Changes in fluorescence were monitored for an additional 5 minutes. After the 5 minute pre-incubation, 20 μl of 2× riluzole (with 1× compound or controls) was added to the cell plate. The final riluzole stimulation concentration in the assay was 30 μM. After the riluzole addition, changes in fluorescence were monitored for an additional 5 minutes. Reduction in the riluzole-activated calcium response relative to control wells was reported as inhibition. A compound-mediated increase in the riluzole response relative to control riluzole response (no test agent present) with no enhancement of calcium entry during preincubation phase was reported as an agonist response.
# Compound inhibition of TRPC5 calcium response was determined as follows. After the riluzole addition, fluorescence was monitored for a 5-minute period. For inhibition, the maximum relative fluorescence response (minus the control response of 1 μM of an internal control compound known to maximally block TRPC5 calcium response, the “REF INHIB” in the formula below) was captured and exported from the FLIPR. […]
# human TRPC5 [2] = biological target: T1, human TRPC5; assay: FLIPR calcium assay, compound activation (agonism) of TRPC5 calcium response; assay type: cell-based; parameters: key to Agonist Potency Range (FLIPR): A=0.001-1 μM; B=1-10 μM; C=>1 μM; D=tested with a positive result for agonism, but EC50 not calculated; settings: ICLN-1633 cells, Fluo-4 calcium response; for EC50: read-out: Agonist Potency Range (FLIPR)
# Description: as §1, §2, §3
# Compound activation (agonism) of TRPC5 calcium response was determined as follows. After the initial compound addition, fluorescence was monitored for 5 minutes. The maximum relative fluorescence response (minus the control response of EBSS buffer alone) is captured and exported from the FLIPR. Compound activation is calculated using the following formula: […]
IC50 (human TRPC5 [1]),Agonist Potency Range (FLIPR) (human TRPC5 [2]),EC50 (human TRPC5 [2]),SMILES
> 10 µM,D,,"C[C@@H]1C(=O)N(C)c2nc(Oc3cccc(F)c3)n(Cc3ccc(Cl)cc3)c2C(=O)N1CCCO (single isomer, unassigned) [Compound 19]"
> 10 µM,,1 to 10 µM,"O=C1c2c(nc(Oc3cccc(OC(F)(F)F)c3)n2Cc2ccc(Cl)cc2)N2CCC[C@H]2C(=O)N1CCCO (single isomer, unassigned) [Compound 22]"
0.001 to 1 µM,,> 10 µM,"O=C1c2c(nc(Oc3cccc(OC(F)(F)F)c3)n2Cc2ccc(Cl)cc2)N2CCC[C@@H]2C(=O)N1CCCO (single isomer, unassigned) [Compound 23]"
0.001 to 1 µM,,> 10 µM,"CN1CC(=O)N(CCCO)C(=O)c2c1nc(Oc1cccc(OC(F)(F)F)c1)n2Cc1ccc(Cl)cc1 [Compound 21, 1-[(4-chlorophenyl)methyl]-7-(3-hydroxypropyl)-4-methyl-2-[3-(trifluoromethoxy)phenoxy]-1H,4H,5H,6H,7H,8H-imidazo[4,5-e][1,4]diazepine-6,8-dione]"
